Measured values from paper PMC7496275, “Pentathiepins: A Novel Class of Glutathione Peroxidase 1 Inhibitors that Induce Oxidative Stress, Loss of Mitochondrial Membrane Potential and Apoptosis in Human Cancer Cells” (Chemmedchem, 2020).
pIC50: −log10 of the molar value.

Experiments:
[1] = target: T1, bovine erythrocyte GPx (Bos taurus, UniProt P00435); assay: GPx enzyme activity assay (TBHP/GSH, GR/NADPH coupled); assay type: biochemical
T1 construct: 180 μL of a bovine erythrocyte GPx1 solution (0.125 U/mL); purchased Sigma Aldrich (Taufkirchen, Germany); host or cells: bovine erythrocytes
T1 sequence (P00435 1-205): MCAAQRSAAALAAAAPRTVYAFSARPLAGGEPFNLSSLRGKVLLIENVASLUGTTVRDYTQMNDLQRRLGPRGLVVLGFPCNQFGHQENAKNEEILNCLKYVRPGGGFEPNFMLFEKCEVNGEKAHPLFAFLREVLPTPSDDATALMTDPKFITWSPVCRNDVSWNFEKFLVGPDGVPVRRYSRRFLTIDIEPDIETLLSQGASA
Description: The ability of pentathiepins to inhibit the bovine erythrocyte GPx activity was assayed for by an established enzyme method, which is based on the GPx‐dependent reduction of tert‐butyl hydroperoxide (TBHP) by GSH, leading to the formation of GSSG, which is coupled to the reduction of GSSG back to GSH by glutathione reductase (GR) and the oxidation of NADPH to NADP^+[10] (Figure 1). Inhibition potencies of the compounds were ranked by their IC50 values; that is, concentration of the inhibitor at the inflection point in the sigmoidal log dose‐inhibition curve (Figure 4A), and are summarized for the pentathiepins and mercaptosuccinic acid (MSA) in Table 1.
GPx enzyme activity assay: To evaluate if the various compounds could inhibit GPx1, an enzymatic assay monitoring the activity of the bovine erythrocyte GPx was used as described previously.33 Bovine erythrocyte GPx is highly homologous to the human GPx1 (homology of 87 %)34 but much more affordable. In this assay, GPx reduces tert‐butylhydroperoxide (TBHP) followed by oxidation of glutathione (GSH) to the disulfide (GSSG), which in turn is regenerated to GSH by glutathione reductase (GR) with the consumption of NADPH. To each well of a UV‐transparent 96‐well plate were added 180 μL of a bovine erythrocyte GPx1 solution (0.125 U/mL) and 30 μL of prospective inhibitor in different concentrations diluted in DMF and incubated under shaking for 15 min at room temperature. Then 30 μL of stock solutions of GSH (2.5 mM) and baker's yeast GR plus NADPH (2 U/mL; 2.0 mM) were added. All stock solutions were prepared in potassium phosphate buffer (50 mM, pH 7.4, EDTA 1.1 mM, Triton‐X 0.01 %). The reaction was started by addition of TBHP solution (5 mM), giving final concentrations of 0.075 U/mL bovine erythrocyte GPx, 0.2 U/mL GR, 0.25 mM GSH, 0.2 mM NADPH and prospective inhibitor concentrations between 0.2–100 μM. The reaction was followed by the rate of decreasing absorption of the NADPH at λ=340 nm, measured every 15 s for ca. 20 min. The GPx activity related to untreated control was imported into the GraphPad Prism 6.0 software and the IC50 values were calculated by estimating the inflection point of the sigmoidal log concentration‐activity curves.

[2] = tested on: human GPx; assay: GPx activity assay with human cancer cell lysates (SISO); assay type: biochemical; settings: inhibitor at its IC50 for bovine GPx, 0.5 mM GSH
Description: To investigate whether the pentathiepins have an inhibitory effect on human GPx, cell lysates of the human cervix cancer cell line SISO, which expresses high levels of GPx1 (see below), were incubated with either 4 or MSA in concentrations of the IC50 value for the inhibitory effect on bovine GPx1.
To measure the inhibition of human GPx activity, the enzyme assay was adapted to use human cancer cell lysates in place of the bovine enzyme. A quantity of 100 μg cellular protein (determined according to the Bradford method) per well was used. Due to the large consumption of cell lysates, just the inhibitory effect on GPx at one concentration of pentathiepin was determined in primary screening. The concentration of GSH was raised to a concentration of 0.5 mM to increase the velocity of the reaction, all other conditions were unchanged. The rates of NADPH oxidation were normalized to the solvent control. […] We used 100 μg protein of lysates and added GSH up to final concentrations between 0.375–3 mM. The rates of the GPx activity were calculated by nonlinear regression and the fitted with the GraphPad Prism 6.0 software: “Enzyme kinetics – Substrate vs. Velocity (Michaelis‐Menten)”.

[3] = tested on: HAP-1 cells; assay: MTT cell viability assay; assay type: cell-based, human
Description: (§1) We determined IC50 values for the viability reduction in a low micro molar range (Figure 6B).
(§2) MTT cell viability assay: For the detection of the inhibition of the viability of cells by the pentathiepins, the MTT‐viability assay was used.37 Briefly, 10 000 and 20 000 cells for the suspension cell lines HL‐60 and Gumbus, respectively, were seeded out in 50 μL medium per well and immediately exposed to the compounds. For the adherent cell lines SISO and HAP‐1, 3000 and 5000 cells, respectively, were seeded out in 96‐well plates and allowed to attach for 24 h. Cells were exposed to nine serial dilutions of compound, added to the medium from 1000‐fold concentrated stock solution in DMF. For the controls, cells were exposed to 0.1 % DMF alone. After 48 h incubation, 20 μL of the MTT stock solution (2.5 mg/mL in PBS) were added to each well to give a final concentration of 1.0 mM. The formazan crystals that formed after 4 h at 37 °C were dissolved by sonification after adding 100 μL of 0.04 M HCl in isopropanol for the suspension cell lines, or with 50 μL DMSO after aspiration of the medium for the adherent cell lines. Optical density was measured with a SpectraMax Plus 383 microtiter plate read at λ=570 nm (Molecular Devices, USA). Data of related absorption to control cells were imported into GraphPad Prism 6.0 software and IC50 values were generated by determining the inflection point of the sigmoidal log concentration‐viability inhibition curves.

[4] = tested on: SISO cells; assay: MTT cell viability assay; assay type: cell-based, human; settings: 48 h
Description: as §1, §2

[5] = tested on: Gumbus cells; assay: MTT cell viability assay; assay type: cell-based, human; settings: 48 h
Description: as §1, §2

[6] = tested on: SISO cell line; assay: MTT viability with ferrostatin-1 co-treatment (ferroptosis probe); assay type: cell-based, human; settings: ferrostatin-1 1.5-6.0 μM, MTT 48 h
Source text: Another form of programmed cell death is ferroptosis, which is iron dependent and activated by lipid peroxidation (LPO) in the cell membrane.14 Unlike apoptosis, PARP cleavage is not observed in this cell death mechanism. GPx4, a membrane bound isoenzyme of GPx1, is believed to be a key protector of cells from ferroptosis by destroying lipid peroxides in the cell membrane.
as §2, with “The formazan crystals that formed after 4 h at 37 °C were dissolved by sonification after adding 100 μL of 0.04 M HCl in isopropanol for the suspension cell lines, or with 50 μL DMSO after aspiration of the medium for the adherent cell lines.” left out, “Data of related absorption to control cells were imported into GraphPad Prism 6.0 software and IC50 values were generated by determining the inflection point of the sigmoidal log concentration‐viability inhibition curves.” left out

[7] = Homo sapiens, MTT, read-out: IC50 for viability reduction

CCOc1c2c(c3cnc4cc(C)c(C)cc4n13)SSSSS2 [Compound 4]
pIC50 ([1]; 23 °C, n>3, 0.25 mM GSH, read-out: Enzyme inhibition IC50 (CI 95 %)): 5.61
potency at inhibiting GPx1 compared to MSA ([1]; ratio of IC50 values): twice as potent as MSA
inhibition of GPx activity [2]: about 20%
cell viability at highest tested concentration ([3]; 48 h): complete loss of cell viability
pIC50 ([3]; Homo sapiens, HAP1, 48 h, MTT, read-out: IC50 for viability reduction): 5.51 to 5.66
cell viability at highest tested concentration [4]: complete loss of cell viability
pIC50 [4, 7]: 5.51 to 5.66
cell viability at highest tested concentration [5]: complete loss of cell viability
pIC50 [5, 7]: 5.51 to 5.66
change of IC50 on co-treatment with ferrostatin-1 [6]: No significant changes in the IC50 value
